From PubChem BioAssay (NCI)
Several values for one entry are separate records, joined by “and”; a condition that tells them apart may be missing. Equal entries are not always repeated.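 Five compound concentrations were applied to cells in 96-well plates for 48 hours; endpoints were derived by simple linear interpolation of the resulting dose-response curve. GI50 marks 50% less growth. Definition used: TGI = concentration required for complete inhibition of growth.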

What was measured:
Assay in all cases: NCI tumour cell line growth inhibition, 48 h
CAKI-1 renal = tested on: CAKI-1 renal
K-562 leukemia = tested on: K-562 leukemia
HL-60(TB) leukemia = tested on: HL-60(TB) leukemia
NCI-H226 lung = tested on: NCI-H226 lung
UACC-257 melanoma = tested on: UACC-257 melanoma
MALME-3M melanoma = tested on: MALME-3M melanoma
SN12C renal = tested on: SN12C renal
M14 melanoma = tested on: M14 melanoma
SK-MEL-28 melanoma = tested on: SK-MEL-28 melanoma
NCI-H460 lung = tested on: NCI-H460 lung

Structure (SMILES) | TGI (CAKI-1 renal) | TGI (K-562 leukemia) | TGI (HL-60(TB) leukemia) | TGI (NCI-H226 lung) | TGI (UACC-257 melanoma) | TGI (MALME-3M melanoma) | TGI (SN12C renal) | TGI (M14 melanoma) | TGI (SK-MEL-28 melanoma) | TGI (NCI-H460 lung) | GI50 (CAKI-1 renal) | GI50 (K-562 leukemia) | GI50 (HL-60(TB) leukemia) | GI50 (NCI-H226 lung) | GI50 (UACC-257 melanoma) [µM] | GI50 (MALME-3M melanoma) | GI50 (SN12C renal) | GI50 (M14 melanoma) | GI50 (SK-MEL-28 melanoma) | GI50 (NCI-H460 lung)
CCCS(=O)(=O)/C(=C(\c1ccc(Br)cc1)S(=O)(=O)CCC)c1ccc(Br)cc1 | > 10 µM | > 10 µM | > 10 µM | > 10 µM | > 10 µM | > 10 µM | > 10 µM | > 10 µM | > 10 µM | > 10 µM |  |  |  |  |  |  |  |  |  | 
COc1ccc(OC)c(C(=O)c2oc3ccc(Br)cc3c2N)c1 | > 100 µM | 35.2 µM | 10.3 µM | > 100 µM | 21.8 µM | 46.8 µM | 29.3 µM | 16.3 µM | 26.2 µM | 12.4 µM | 0.372 µM | 0.082 µM | 0.27 µM | 2.38 µM | 0.392 | 0.339 µM | 0.648 µM | 0.303 µM | 0.61 µM | 0.375 µM
Cc1[nH]c2ccccc2c1C1Cc2ccccc2N1C(=O)/C(Cl)=C/c1ccccc1 (configuration not stated) | > 100 µM | > 100 µM | > 100 µM | > 100 µM | > 100 µM | > 100 µM | > 100 µM | > 100 µM | > 100 µM | > 100 µM |  |  |  |  |  |  |  |  |  | 
CCc1oc2ccccc2c1C(=O)c1cc(I)c(O)c(I)c1 | 10.8 µM | 18.8 µM | 8.74 µM | 27 µM | 21.1 µM | 7.9 µM | 17.8 µM | 5.3 µM | 21.6 µM | 8.94 µM | 2.3 µM | 0.726 µM | 1.62 µM | 10.6 µM | 6.13 | 1.41 µM | 4.18 µM | 1.24 µM | 8.45 µM | 2.63 µM
N#C/C(=C\c1cc2ccccc2c2ccccc12)c1ccccc1 | > 37.8 µM | 13.7 µM | 14.8 µM | > 100 µM | > 89 µM | 19.5 µM | > 95.8 µM | 30 µM | > 100 µM | > 36.1 µM |  |  |  |  |  |  |  |  |  | 
COc1cccc(N2C(=O)[C@H]3CC(C)c4c([nH]c5ccccc45)[C@H]3C2=O)c1 (some centres not stated) | > 100 µM | > 100 µM | > 100 µM | > 100 µM | > 100 µM | > 100 µM | > 100 µM | > 100 µM | > 100 µM | > 100 µM |  |  |  |  |  |  |  |  |  | 
CC[C@H](C)[C@H]1O[C@]2(C=C[C@@H]1C)C[C@@H]1C[C@@H](C/C=C(\C)[C@@H](O[C@H]3C[C@H](OC)[C@@H](O[C@H]4C[C@H](OC)[C@@H](NC)[C@H](C)O4)[C@H](C)O3)[C@@H](C)/C=C/C=C3\CO[C@@H]4[C@H](O)C(C)=C[C@@H](C(=O)O1)[C@]34O)O2 | 5.02 µM | 4.22 µM | 3.81 µM | 16 µM | 4.21 µM | 3.69 µM | 11.3 µM | 3.98 µM | 3.47 µM | 3.63 µM | 1.89 µM | 1.97 µM | 1.88 µM | 4.26 µM | 2.03 | 1.85 µM | 3.04 µM | 1.93 µM | 1.73 µM | 1.84 µM
Cc1ccc(NC(=O)c2sc3nc(C)c(C(O)c4ccccc4)cc3c2N)cc1 (configuration not stated) | 25.9 µM | > 100 µM | 0.909 µM | 41.2 µM | > 100 µM | 53.7 µM | 25.9 µM | 26.1 µM | > 100 µM | 5.32 µM | 0.45 µM | 0.333 µM | 0.293 µM | 1.27 µM | 4.09 | 0.476 µM | 0.664 µM | 0.284 µM | 0.772 µM | 0.359 µM
Cc1ccc2c(c1)CN(C(=O)CCC(=O)OCc1ccccc1)c1ccc(C)cc1CN2C(=O)CCC(=O)OCc1ccccc1 | > 100 µM | > 100 µM | > 100 µM | > 100 µM | > 100 µM | > 100 µM | > 100 µM | > 100 µM | > 100 µM | > 100 µM |  |  |  |  |  |  |  |  |  | 
Cc1ccc(-c2cc(=O)c3cc(C)c(C)c(C(=O)O)c3o2)cc1C | 89.5 µM | > 100 µM | > 100 µM | > 100 µM | > 100 µM | > 100 µM | > 100 µM | > 100 µM | > 100 µM | > 100 µM |  |  |  |  |  |  |  |  |  | 
Clc1ccc(-c2c(C3=NCCCN3)nnn2-c2ccc(Cl)cc2)cc1 | > 94.1 µM | 48.5 µM | 48.1 µM | > 100 µM | 44.1 µM | 33 µM | > 100 µM | 31.3 µM | 31.6 µM | > 75.4 µM |  |  |  |  |  |  |  |  |  | 
Fc1ccc(-c2nn3ncccc3c2-c2ccnc(Nc3ccc4c(c3)OCCO4)n2)cc1 | > 17.2 µM | > 25 µM | 13.8 µM | > 18.9 µM | 19.7 µM | > 25 µM | > 25 µM | > 25 µM | > 25 µM | > 23.3 µM | 0.891 µM | 2.68 µM | 5.01 µM | 5.76 µM | 6.22 | 14.1 µM | 4.68 µM | 7.81 µM | 8.64 µM | 5.64 µM
COc1cc2c(c(OC)c1OC)-c1c(cc3c(c1OC)OCO3)C1OC2C(C)C1C (configuration not stated) (tested in a mixture with another compound) | > 100 µM | > 100 µM | > 100 µM | > 100 µM | > 100 µM | > 100 µM | > 100 µM | > 100 µM | > 100 µM | > 100 µM |  |  |  |  |  |  |  |  |  | 
Cc1ccc2c3c(c(=O)[nH]c2c1)C1(C(C#N)=C(N)O3)c2cc(Br)ccc2-c2ccc(Br)cc21 | 3.23 µM | 12.6 µM | 66.7 µM | 4.6 µM | 5.24 µM | 3.15 µM | 4.03 µM | 17 µM | 13.4 µM | 4.67 µM | 1.56 µM | 2.96 µM | 18.8 µM | 1.9 µM | 2.32 | 1.51 µM | 1.92 µM | 4.23 µM | 3.48 µM | 2.09 µM
Cc1nc2ccccc2c(=O)n1-c1ccccc1F | > 100 µM | > 100 µM | > 100 µM | > 100 µM | > 100 µM | > 100 µM | > 100 µM | > 100 µM | > 100 µM | > 100 µM |  |  |  |  |  |  |  |  |  | 
O=C1/C(=C/c2ccc(O)cc2)CSc2ccc(Cl)cc21 | 52 µM | > 100 µM | > 100 µM | 51.2 µM | 38.9 µM | 38 µM | 46.9 µM | 62.2 µM | 15.8 µM | 39.2 µM | 21.2 µM | 2.36 µM | 2.27 µM | 22.1 µM | 19.1 | 16.6 µM | 14 µM | 10 µM | 4.04 µM | 17.7 µM
CC(C)(C)c1cc(NC(=O)Cc2ccc(-c3cnc4cc(-c5cnn(CCN6CCOCC6)c5)ccc4n3)cc2)no1 | 50 µM and > 100 µM and > 3 µM | 50 µM and > 100 µM and > 3 µM | 50 µM and > 100 µM and > 3 µM | 50 µM and > 100 µM and > 3 µM | 50 µM and > 100 µM and > 3 µM | 11.3 µM and 2.82 µM | 50 µM and > 100 µM and > 3 µM | 50 µM and > 100 µM and > 3 µM | 50 µM and > 100 µM and > 3 µM | 50 µM and > 100 µM and > 3 µM | 0.123 µM and 0.219 µM and 0.0253 µM | 0.216 µM and 0.307 µM and 0.0848 µM | 0.225 µM and 0.546 µM and 0.158 µM | 0.223 µM and 0.533 µM and 0.0783 µM |  | 0.187 µM and 0.278 µM and 0.0505 µM | 0.243 µM and 0.348 µM and 0.0645 µM | 0.202 µM and 0.37 µM and 0.0419 µM | 0.885 µM and 0.826 µM and 0.139 µM | 0.181 µM and 0.32 µM and 0.0456 µM
Cn1cnc([N+](=O)[O-])c1[Se]c1nc(N)nc2c1ncn2C1OC(CO)C(O)C1O (configuration not stated) | > 100 µM | > 100 µM | > 100 µM | > 100 µM | > 100 µM | > 100 µM | > 100 µM | > 100 µM | > 100 µM | > 100 µM |  |  |  |  |  |  |  |  |  | 
CCCCN1CSC(=S)N(Cc2ccccc2)C1 | > 100 µM | > 100 µM | 19.4 µM | > 100 µM | 60.2 µM | > 93.5 µM | > 100 µM | > 100 µM | > 100 µM | > 94.3 µM |  |  |  |  |  |  |  |  |  | 
CON(C)C(=O)N1N=C(c2cc(F)ccc2F)SC1(CCCN)c1ccccc1 (configuration not stated) | 17.3 µM and 18.1 µM | 15.1 µM and 14.3 µM | 5.38 µM and 2.03 µM | 27.3 µM and 28.3 µM | 21.7 µM and 22.3 µM | 31.6 µM and 28.3 µM | 16 µM and 16.1 µM | 11.2 µM and 4.38 µM | 23.8 µM and 23.1 µM | 12 µM and 11.8 µM | 0.238 µM | < 0.01 µM | 0.0184 µM and < 0.01 µM | 12 µM and 12.5 µM |  | 13.3 µM and 10.5 µM | < 0.01 µM | < 0.01 µM | 10.6 µM and 2.97 µM | < 0.01 µM
N#Cc1cccc(NC(=O)c2cc(-c3ccc(F)cc3F)ccc2O)c1 | 10.1 µM | > 100 µM | 5.6 µM | 6.43 µM | 5.84 µM | 5.48 µM | 8.32 µM | 7.84 µM | 14.8 µM | 11.2 µM | 2.31 µM | 1.98 µM | 2.17 µM | 1.67 µM | 1.53 | 1.44 µM | 2.1 µM | 1.94 µM | 2.07 µM | 2.75 µM
C/C=C(\C)CC/C=C/CO[Si](C)(C)C(C)(C)C | > 100 µM | > 100 µM | 52.1 µM | > 100 µM | > 100 µM | > 100 µM | > 100 µM | > 100 µM | > 100 µM | > 100 µM |  |  |  |  |  |  |  |  |  | 
COc1cc2c3c(n(C)c(=O)c2cc1OC)-c1cc2c(cc1/C3=C\CNCCCN)OCO2 | 16 µM |  | 0.782 µM | 0.797 µM | 2.76 µM | 0.591 µM | 1.07 µM | 5.31 µM | 39.6 µM | 12.9 µM | 0.848 µM | 0.168 µM | 0.171 µM | 0.0753 µM | 0.907 | 0.144 µM | 0.115 µM | 0.585 µM | 2.14 µM | 0.75 µM
O=C(Nc1ccc(Cl)cc1Cl)C(=O)C(C(=O)c1ccncc1)C1OC(=O)c2ccccc21 (configuration not stated) | > 100 µM | > 100 µM | > 100 µM | > 100 µM | > 100 µM | > 100 µM | > 100 µM | > 100 µM | > 100 µM | > 100 µM |  |  |  |  |  |  |  |  |  | 
